Measurements: US20260224555A1, “NEW PHENYLQUINOLONE COMPOUND HAVING ANTIBACTERIAL AND ANTI-CANCER FUNCTIONS AND PREPARATION THEREOF” (AlphaMol Science Ltd (Shanghai), priority 2022, published 2026)

Columns and labels:
Assay in all cases: In vitro anticancer activity test (MTT cell proliferation)
Type in all cases: cell-based
[1] = tested on: human malignant melanoma cell A375; details: A-375
Experimental: (§1) The anticancer activity of the compounds was tested using an in vitro cancer cell tests. The specific test method is as follows:
(§2) 1. Cell recovery and culture method: the cryovial was taken out from the liquid nitrogen container firstly, soaked directly in 37° C. warm water, and shaked from time to time to let it thaw as soon as possible. Then, the cryovial was transferred to a clean bench, and the lid was open. The cell suspension was taken into a centrifuge tube using a rubber-tipped dropper and more than 10 times the culture medium was added, mixed well, and centrifuged at 50 g for 5 minutes. Then, the supernatant was discarded, complete culture medium containing 10% fetal bovine serum was added to resuspend the cells, the cells was counted, the cell density was adjusted, and then inoculated into a culture bottle. The culture bottle was placed in a cell culture incubator at 5% CO2 and 37° C. The complete culture medium was replaced once the next day and the culture was continued.
(§3) 2. Cell passaging method: adherent cells in the logarithmic growth phase were placed in a clean bench, the original culture medium was discarded, and washed three times with 1×PBS. An appropriate amount of 0.25% trypsin digestion solution was added to moisten the cells, and then the trypsin solution was aspirated. The cells were placed in a cell culture incubator at 5% CO2 and 37° C. for digestion for a suitable time, and observed under a microscope. When 90% of the cells become round, the cells were moved immediately to the clean bench and complete culture medium was added to terminate digestion. Then, the cells were dislodged by pipetting up and down with a rubber-tipped dropper to single cells. The cells were counted, and the cell density was adjusted. The cells were inoculated into a suitable culture bottle or dish, added enough complete culture medium, and placed in a cell culture incubator at 5% CO2 and 37° C. for static culture.
(§4) For suspension cells in the logarithmic phase, the original culture medium was directly centrifuged at 50 g for 5 minutes, the supernatant was discarded, and the cells were washed once with PBS and centrifuged. After discarding the supernatant, the complete culture medium was added and the cells were dispersed using a rubber-tipped dropper. The cells are counted, and the cell density was adjusted. The cells were inoculated into appropriate culture bottles or culture dishes, and sufficient complete culture medium was added, and the cells were cultured in a cell culture incubator at 5% CO2 and 37° C.
(§5) 3. Cell proliferation assay: cells in good state in logarithmic phase were taken and appropriate amount of the cells was inoculated into 96-well plates according to the cell passage treatment method, with each well containing 180 μL complete medium. After the cells growth was recovered and the number of cells in each well is 5000±500, a drug was added for treatment.
(§6) After drug treatment during the experimental time, MTT solution with a final concentration of 0.5 mg/mL was added to each well, and placed in a cell culture incubator at 5% CO2 and 37° C. to allow a fully reaction of MTT with cells. After 4 hours, the solution in the 96-well plate was discarded, 100 µL of DMSO was added, and shaked to dissolve the formazan precipitated at the bottom of the plate, and the absorbance value of samples was detected at a wavelength of 570 nm using a microplate reader. Calculation method of cell viability rate: […]

[2] = tested on: human acute myeloid leukemia cell MOLM-13
Experimental: as §1, §2, §3, §4, §5, §6

[3] = tested on: human non-small cell lung cancer cell A549
Experimental: as §1, §2, §3, §4, §5, §6

[4] = tested on: human renal cancer cell OS-RC-2
Experimental: as §1, §2, §3, §4, §5, §6

[5] = tested on: human acute monocytic leukemia cell THP-1
Experimental: as §1, §2, §3, §4, §5, §6

[6] = tested on: human liver cancer cell HepG2
Experimental: as §1, §2, §3, §4, §5, §6

[7] = tested on: pancreatic cancer cell PNAC-1
Experimental: as §1, §2, §3, §4, §5, §6

[8] = tested on: human osteosarcoma cell U2-OS; details: U2OS
Experimental: as §1, §2, §3, §4, §5, §6

[9] = tested on: human liver cancer cell BLE-7402
Experimental: as §1, §2, §3, §4, §5, §6

[10] = tested on: human Burkitt's lymphoma cell Raji
Experimental: as §1, §2, §3, §4, §5, §6

[11] = tested on: human gastric cancer cell MGC-803
Experimental: as §1, §2, §3, §4, §5, §6

[12] = tested on: human colon cancer cell HCT 116
Experimental: as §1, §2, §3, §4, §5, §6

[13] = tested on: human prostate cancer cell PC-3
Experimental: as §1, §2, §3, §4, §5, §6

human glioma cell SNB-19 = tested on: human glioma cell SNB-19
Experimental: as §1, §2, §3, §4, §5, §6

[14] = tested on: human breast cancer cell MFM223; details: MFM-223
Experimental: as §1, §2, §3, §4, §5, §6

[15] = tested on: human acute T-lymphoblastic leukemia cell Jurkat
Experimental: as §1, §2, §3, §4

[16] = tested on: human ovarian adenocarcinoma cell SK-OV-3
Experimental: as §1, §2, §3, §4

[17] = tested on: human bladder transitional cell carcinoma cell T24; details: T-24
Experimental: as §1, §2, §3, §4

[18] = tested on: human breast ductal carcinoma cell T-47D; details: T47D
Experimental: as §1, §2, §3, §4

[19] = tested on: human epidermal carcinoma cell A431; details: A-431
Experimental: as §1, §2, §3, §4

[20] = tested on: human breast cancer cell MCF-7; details: MCF7
Experimental: as §1, §2, §3, §4

Measured: IC50

O=C(CCl)Nc1ncc(-c2cc3c(cc2F)c(=O)c(C(=O)O)cn3C2CC2)cc1F [Example 135]
1 to 10 µM: all assays above
